Experiments:
[1] = tested on: Bacillus cereus; test: Inhibition of Bacillus cereus PC-PLC assessed as residual activity at 10 uM using phosphatidylcholine as substrate measured after 1 hr by horseradish peroxidase/alkaline phosphatase/choline oxidase-coupled amplex red reagent based fluorescence assay relative to control
[2] = Inhibition of Bacillus cereus PC-PLC using phosphatidylcholine as substrate measured after 1 hr by horseradish peroxidase/alkaline phosphatase/choline oxidase-coupled amplex red reagent based fluorescence assay
[3] = tested on: MDA-MB-231; test: Cytotoxicity against human MDA-MB-231 cells assessed as reduction in cell proliferation measured at 50 ug/ml measured after 48 to 72 hrs by trypan blue exclusion assay relative to control; format: functional; design: scale not given: the % may be the effect or the level left; conditions: dose 50 µg/ml; time 48-72 hrs

Row | SMILES | Activity [1] | IC50 [2] | Ki [2] | Activity [3]
1 | S=C([S-])OC1CC2CC1C1CCCC21.[K+] (centres undefined) | 40.3% | 8.08 µM | 6.4 µM | 60%
2 | Fc1ccccc1CNc1ccc(N2CCOCC2)cc1 | 0% | 1.06 µM |  | 
3 | O=C(O)c1cc(NCc2cccc(Cl)c2)ccc1N1CCOCC1 | 10.7% | 3.6 µM |  | 
4 | COC(=O)c1cc(NCc2c(C)cc(C)cc2C)ccc1N1CCOCC1 | 96.8% |  |  | 

Reference: ChEMBL document CHEMBL4680202, “Development, synthesis and biological investigation of a novel class of potent PC-PLC inhibitors” (Eur J Med Chem, 2020)
